Experimental data as given in the NIST ThermoML archive (doi:10.1007/s10765-007-0346-0).

Tests used:
[1] = 101.33 kPa, Liquid, Capillary tube (Ostwald / Ubbelohde) method
[2] = xn = mol fraction of the nth substance listed; details: 101 kPa, Liquid, Capillary tube (Ostwald / Ubbelohde) method

COC(C)(C)C [2-methoxy-2-methylpropane]
[1]
Details	kinematic viscosity [m2/s]
283.15 K	5.191e-07
298.15 K	4.529e-07
313.15 K	3.961e-07

COC(C)(C)C [2-methoxy-2-methylpropane] + CCC(C)CC
[2], x1 = 1
Details	kinematic viscosity [m2/s]
283.15 K	5.191e-07
298.15 K	4.529e-07
313.15 K	3.961e-07

COC(C)(C)C [2-methoxy-2-methylpropane] + CCCCCC
kinematic viscosity [m2/s], [2]
Details	283.15 K	298.15 K	313.15 K
x1 = 0.0479	5.097e-07	4.478e-07	4.017e-07
x1 = 0.0974	5.074e-07	4.465e-07	3.994e-07
x1 = 0.1983	5.034e-07	4.442e-07	3.96e-07
x1 = 0.2988	5.004e-07	4.427e-07	3.932e-07
x1 = 0.3979	4.99e-07	4.418e-07	3.91e-07
x1 = 0.4975	4.99e-07	4.413e-07	3.897e-07
x1 = 0.5974	4.996e-07	4.419e-07	3.895e-07
x1 = 0.6968	5.025e-07	4.431e-07	3.895e-07
x1 = 0.7911	5.059e-07	4.45e-07	3.913e-07
x1 = 0.8976	5.125e-07	4.484e-07	3.926e-07
x1 = 0.9486	5.147e-07	4.505e-07	3.94e-07

COC(C)(C)C [2-methoxy-2-methylpropane] + CCCCCCC
kinematic viscosity [m2/s], [2]
Details	283.15 K	298.15 K	313.15 K
x1 = 0.0431	6.606e-07	5.683e-07	4.926e-07
x1 = 0.0987	6.512e-07	5.599e-07	4.862e-07
x1 = 0.1892	6.353e-07	5.461e-07	4.767e-07
x1 = 0.2958	6.168e-07	5.3e-07	4.658e-07
x1 = 0.3844	6.03e-07	5.169e-07	4.569e-07
x1 = 0.4986	5.845e-07	5.012e-07	4.454e-07
x1 = 0.6007	5.7e-07	4.881e-07	4.347e-07
x1 = 0.6999	5.567e-07	4.777e-07	4.246e-07
x1 = 0.7998	5.421e-07	4.68e-07	4.144e-07
x1 = 0.8997	5.298e-07	4.604e-07	4.047e-07
x1 = 0.9499	5.241e-07	4.566e-07	4.004e-07

CCC(C)CC [3-methylpentane]
[1]
Details	kinematic viscosity [m2/s]
283.15 K	4.928e-07
298.15 K	4.366e-07
313.15 K	3.881e-07

CCC(C)CC [3-methylpentane] + CC(C)OC(C)C
kinematic viscosity [m2/s], [2]
Details	283.15 K	298.15 K	313.15 K
x2 = 0	4.928e-07	4.366e-07	3.881e-07
x2 = 0.0498	4.914e-07	4.364e-07	3.872e-07
x2 = 0.1011	4.903e-07	4.355e-07	3.861e-07
x2 = 0.201	4.886e-07	4.348e-07	3.847e-07
x2 = 0.3018	4.877e-07	4.342e-07	3.837e-07
x2 = 0.4014	4.871e-07	4.339e-07	3.83e-07
x2 = 0.501	4.876e-07	4.338e-07	3.827e-07
x2 = 0.5993	4.883e-07	4.344e-07	3.831e-07
x2 = 0.6973	4.897e-07	4.352e-07	3.833e-07
x2 = 0.8014	4.912e-07	4.366e-07	3.842e-07
x2 = 0.8997	4.934e-07	4.377e-07	3.849e-07
x2 = 0.9501	4.947e-07	4.385e-07	3.854e-07

CCC(C)CC [3-methylpentane] + CCCCOCCCC
kinematic viscosity [m2/s], [2]
Details	283.15 K	298.15 K	313.15 K
x2 = 0.0498	5.151e-07	4.505e-07	4.026e-07
x2 = 0.1011	5.383e-07	4.655e-07	4.176e-07
x2 = 0.1884	5.796e-07	4.975e-07	4.427e-07
x2 = 0.2989	6.32e-07	5.415e-07	4.712e-07
x2 = 0.4033	6.843e-07	5.846e-07	5.031e-07
x2 = 0.4999	7.344e-07	6.244e-07	5.374e-07
x2 = 0.5992	7.877e-07	6.669e-07	5.73e-07
x2 = 0.7016	8.46e-07	7.116e-07	6.088e-07
x2 = 0.799	9.03e-07	7.548e-07	6.442e-07
x2 = 0.9001	9.657e-07	8.021e-07	6.804e-07
x2 = 0.9496	9.979e-07	8.257e-07	6.992e-07

CCC(C)CC [3-methylpentane] + COC(C)(C)C
kinematic viscosity [m2/s], [2]
Details	283.15 K	298.15 K	313.15 K
x2 = 0.048	4.915e-07	4.361e-07	3.87e-07
x2 = 0.0967	4.906e-07	4.357e-07	3.859e-07
x2 = 0.1961	4.893e-07	4.348e-07	3.843e-07
x2 = 0.2982	4.895e-07	4.347e-07	3.836e-07
x2 = 0.3995	4.906e-07	4.351e-07	3.834e-07
x2 = 0.4983	4.923e-07	4.361e-07	3.836e-07
x2 = 0.5992	4.954e-07	4.379e-07	3.85e-07
x2 = 0.6984	4.995e-07	4.406e-07	3.863e-07
x2 = 0.7978	5.048e-07	4.435e-07	3.888e-07
x2 = 0.8996	5.113e-07	4.478e-07	3.918e-07
x2 = 0.9491	5.145e-07	4.502e-07	3.937e-07

CC(C)OC(C)C [diisopropyl ether]
[1]
Details	kinematic viscosity [m2/s]
283.15 K	4.959e-07
298.15 K	4.392e-07
313.15 K	3.861e-07

CC(C)OC(C)C [diisopropyl ether] + CCC(C)CC
[2], x1 = 1
Details	kinematic viscosity [m2/s]
283.15 K	4.959e-07
298.15 K	4.392e-07
313.15 K	3.861e-07

CC(C)OC(C)C [diisopropyl ether] + CCCCCC
kinematic viscosity [m2/s], [2]
Details	283.15 K	298.15 K	313.15 K
x1 = 0.0523	5.094e-07	4.477e-07	4.011e-07
x1 = 0.0915	5.076e-07	4.467e-07	3.994e-07
x1 = 0.189	5.031e-07	4.446e-07	3.961e-07
x1 = 0.3016	4.99e-07	4.426e-07	3.929e-07
x1 = 0.398	4.963e-07	4.409e-07	3.907e-07
x1 = 0.4998	4.944e-07	4.397e-07	3.889e-07
x1 = 0.6007	4.931e-07	4.383e-07	3.874e-07
x1 = 0.6975	4.932e-07	4.381e-07	3.866e-07
x1 = 0.7976	4.934e-07	4.381e-07	3.859e-07
x1 = 0.8959	4.945e-07	4.386e-07	3.856e-07
x1 = 0.9432	4.953e-07	4.385e-07	3.86e-07

CC(C)OC(C)C [diisopropyl ether] + CCCCCCC
kinematic viscosity [m2/s], [2]
Details	283.15 K	298.15 K	313.15 K
x1 = 0.0508	6.578e-07	5.658e-07	4.91e-07
x1 = 0.1002	6.473e-07	5.567e-07	4.831e-07
x1 = 0.1986	6.265e-07	5.387e-07	4.719e-07
x1 = 0.2973	6.068e-07	5.218e-07	4.61e-07
x1 = 0.3992	5.88e-07	5.055e-07	4.498e-07
x1 = 0.4991	5.693e-07	4.9e-07	4.385e-07
x1 = 0.5979	5.533e-07	4.779e-07	4.273e-07
x1 = 0.7009	5.372e-07	4.679e-07	4.166e-07
x1 = 0.8008	5.215e-07	4.588e-07	4.058e-07
x1 = 0.8954	5.091e-07	4.496e-07	3.96e-07
x1 = 0.95	5.016e-07	4.443e-07	3.909e-07

CCCCCCC [heptane]
[1]
Details	kinematic viscosity [m2/s]
283.15 K	6.697e-07
298.15 K	5.754e-07
313.15 K	4.986e-07

CCCCCCC [heptane] + CC(C)OC(C)C
[2], x2 = 0
Details	kinematic viscosity [m2/s]
283.15 K	6.697e-07
298.15 K	5.754e-07
313.15 K	4.986e-07

CCCCCC [hexane]
[1]
Details	kinematic viscosity [m2/s]
283.15 K	5.125e-07
298.15 K	4.493e-07
313.15 K	4.039e-07

CCCCCC [hexane] + CC(C)OC(C)C
[2], x2 = 0
Details	kinematic viscosity [m2/s]
283.15 K	5.125e-07
298.15 K	4.493e-07
313.15 K	4.039e-07
